Assay results published in patent publication US20240010681A1, “PEPTIDES AND METHODS OF USE” (REALTA LIFE SCIENCES, INC., priority 2020, published 2024).

Legend:
free DNA = test: Free DNA in plasma by PicoGreen assay, two-hit ALI rat model; assay type: in vivo
Protocol: . Plasma samples were incubated with PicoGreen. […] All free DNA measurements for each animal were done in triplicate. Data are means and standard error of the mean. Statistical analysis was performed using bootstrap approach or Welch's ANOVA. * denotes p=0.026, ** denotes p=0.039 and *** denotes p=0.005 compared to 2-hit animals.
Neutrophil extracellular traps (NETs) released from activated neutrophils have been previously shown to play a pathogenic role in a variety of autoimmune, metabolic, and inflammatory diseases. […] . […] .

ICAM-2/CD102 = ICAM-2/CD102 (Homo sapiens, UniProt P13598); test: ELISA-type plate binding assay, ICAM-2; conditions: 1% gelatin/PBS buffer
Protocol: To address this hypothesis, an ELISA-type binding assay was developed in which neutrophil ligands (LFA-1 and MAC-1/CR3) and […] cell ligands (ICAM-1/CD54 and ICAM-2/CD102) were bound to microtiter plates. Plates were then incubated with increasing amounts of PA-dPEG24 in 1% gelatin/PBS buffer probed with antibody to the peptide and developed.

ICAM-5 = ICAM-5 (Homo sapiens, UniProt Q9UMF0); test: ELISA-type plate binding assay, ICAM-5; conditions: buffer
[1] = Pharmacokinetics, metabolite profiles and excretion of [14C]-PIC1-dPEG24 after single IV dose; assay type: in vivo, rat; conditions: for Adjusted Peak Distribution (ROI %) in Rat Plasma: AUC0-24 hr pooled plasma, integrated together: M89/M160, M1444/M1701/M1573, M1288/M1217, M2244/M2357/M2470, M2768/PIC1-dPEG24; for estimated mean concentration within 0-24 hr in AUC0-24 hr pooled plasma: parent value = PIC1-dPEG24 and M2768 together
Protocol: […]. The six rats in Group 3 and Group 4 were further divided into two subgroups for serial blood collections at 10, 30 min and 1, 2, 3, 4, 6, 8, 24, and 48 hr. Blood was pooled by equal volume across animals at each time point, and aliquots (˜200 μL) of pooled blood were removed at each time point for total radioactivity, and the rest of blood samples were centrifuged to obtain plasma. Bile, urine, feces, and cage wash samples were collected up to 72 hr in bile duct cannulated (BDC) rats, and up to 168 hr in intact rats, and terminal blood samples were collected at the end of study (72 hr or 168 hr post-doses). The total radioactivity concentrations in the excreta, blood and plasma were determined by homogenization, combustion and/or liquid scintillation counting (LSC). The metabolite profiles and structure characterization were conducted in pooled plasma, urine, and bile samples using LC-UV/MS as well as radioactive detection. […].
The radioactive profiles of rat plasma samples for the low dose group and the high dose group were qualitatively similar.

[2] = not given; remark: listed apart in the source
[3] = IV 200 mg/ml (800 mg/kg)
[4] = test system: OVA/LPS rat model of neutrophilic asthma; test: OVA/LPS rat model of neutrophilic asthma, leucocyte quantification in BALF; conditions: Day 24
[5] = test system: human umbilical vascular endothelial cell (HUVEC); test: HUVEC 3-dimensional culture, LPS-stimulated non-VEGF mediated angiogenesis; conditions: increasing amounts of peptide; 10 ug/ml LPS; 18 hours

ICAM-2/CD102, sequence (P13598 25-275): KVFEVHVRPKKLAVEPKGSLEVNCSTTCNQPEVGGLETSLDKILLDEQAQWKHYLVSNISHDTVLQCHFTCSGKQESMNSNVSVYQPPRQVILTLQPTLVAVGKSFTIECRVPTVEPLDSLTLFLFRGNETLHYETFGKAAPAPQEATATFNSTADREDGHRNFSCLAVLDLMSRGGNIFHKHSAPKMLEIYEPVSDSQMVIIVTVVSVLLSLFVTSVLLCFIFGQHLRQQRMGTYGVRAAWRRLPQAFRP
ICAM-5, sequence (Q9UMF0 32-924): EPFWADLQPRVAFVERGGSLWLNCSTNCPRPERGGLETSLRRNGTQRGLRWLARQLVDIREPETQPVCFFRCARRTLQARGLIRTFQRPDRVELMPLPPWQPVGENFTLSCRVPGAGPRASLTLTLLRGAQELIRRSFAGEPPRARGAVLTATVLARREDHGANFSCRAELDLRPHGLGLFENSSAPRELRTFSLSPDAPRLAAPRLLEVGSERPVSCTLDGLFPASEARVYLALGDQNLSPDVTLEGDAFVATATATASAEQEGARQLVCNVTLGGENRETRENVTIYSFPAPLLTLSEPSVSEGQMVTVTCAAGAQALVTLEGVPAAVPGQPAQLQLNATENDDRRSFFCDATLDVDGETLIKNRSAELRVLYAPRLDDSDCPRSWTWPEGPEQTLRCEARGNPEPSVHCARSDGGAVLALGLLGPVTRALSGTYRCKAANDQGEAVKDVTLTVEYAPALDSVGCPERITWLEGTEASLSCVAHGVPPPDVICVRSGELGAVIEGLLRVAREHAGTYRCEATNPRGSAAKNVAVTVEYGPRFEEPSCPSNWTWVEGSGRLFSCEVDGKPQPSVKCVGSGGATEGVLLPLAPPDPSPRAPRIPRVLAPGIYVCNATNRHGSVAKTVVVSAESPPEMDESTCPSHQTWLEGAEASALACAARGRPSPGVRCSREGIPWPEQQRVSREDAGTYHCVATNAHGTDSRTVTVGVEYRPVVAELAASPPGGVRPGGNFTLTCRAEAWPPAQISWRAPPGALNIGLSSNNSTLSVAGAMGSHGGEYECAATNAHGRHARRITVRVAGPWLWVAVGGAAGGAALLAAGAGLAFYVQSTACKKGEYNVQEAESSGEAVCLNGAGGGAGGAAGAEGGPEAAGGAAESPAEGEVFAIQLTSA

In the case of `CC[C@H](C)[C@H](N)C(=O)N[C@@H](C)C(=O)N[C@@H](CC(C)C)C(=O)N[C@H](C(=O)N[C@@H](CC(C)C)C(=O)N[C@@H](CCC(=O)O)C(=O)N1CCC[C@H]1C(=O)N[C@H](C(=O)N[C@@H](CS)C(=O)N[C@@H](CS)C(=O)N[C@@H](CCC(N)=O)C(=O)N[C@@H](CCC(=O)O)C(=O)N[C@@H](CCCNC(=N)N)C(=O)N[C@@H](C)C(=O)N[C@@H](C)C(=O)NCCOCCOCCOCCOCCOCCOCCOCCOCCOCCOCCOCCOCCOCCOCCOCCOCCOCCOCCOCCOCCOCCOCCOCCOCCC(=O)O)[C@@H](C)CC)[C@@H](C)CC` [RLS-0071], the “free DNA level in plasma” value (free DNA; prophylactic 10, 40 and 160 mg/kg, 4 hours after transfusion, 160 mg/kg significant (p=0.026)) is reported as “reduced levels of free DNA”, the “free DNA level in plasma” value (free DNA; rescue 40 mg/kg up to three hours after 2-hit injury, 120 and 180 minutes significant (p=0.039, p=0.005)) is reported as “reduced levels of free DNA” and the “binding to ICAM-2” value (ICAM-2/CD102) is reported as “but not ICAM-2”. The “binding to ICAM-5” value (ICAM-5) was “superior binding to ICAM-5”, the “Adjusted Peak Distribution (ROI %) in Rat Plasma” value ([1]; Group 3 (20 mg/kg IV)) was “about 12%” and the “Adjusted Peak Distribution (ROI %) in Rat Plasma” value ([1]; Group 4 (200 mg/kg IV)) was about 16%. The “estimated mean concentration within 0-24 hr in AUC0-24 hr pooled plasma” value ([1]; high dose group (200 mg/kg IV)) was 2225 ng Eq/g, the “estimated mean concentration within 0-24 hr in AUC0-24 hr pooled plasma” value ([1]; low dose group (20 mg/kg IV)) was 187 ng Eq/g and the “stability in diluted dose solution in water” value (6-day storage at -20 °C freezer, M2768 detected) was “not stable”. The “stability in solutions, rat urine, and/or rat plasma” value (decomposes to M2768 by dehydrogenation) was “not stable”, the “stability in rat plasma and urine” value (spiked into control blank rat plasma and pre-dose urine, or decomposition during sample processing) was “not stable in rat plasma/urine” and the “time RLS-0071 could be detected in vitreous post-IVT injection” value ([2]; IVT 160 mg/ml in 5 microliters) was “up to 10 days”. For the same compound, the “half-life, IVT versus IV” value ([2]; IVT 160 mg/ml vs IV 200 mg/ml) was “much longer half-life in the eye than peptide delivered intravenously”, the “RLS-0071 level in plasma after 24 hours” value [3] was “undetectable” and the “neutrophil accumulation in the BALF” value ([4]; prophylactic 160 mg/kg IV Days 21, 22, 23, P<0.03) was “significant reduction in neutrophil accumulation”. For the same compound, the “neutrophils in the BALF” value ([4]; rescue 160 mg/kg IV Days 22 and 23, P<0.1844) was “reduction in neutrophils but did not reach statistical significance” and the “angiogenesis (sprouting and tube formation)” value [5] was “dose-dependent reduction in angiogenesis”.
